Entries after “also recorded” stand apart in the source; their conditions may differ.
Tests used:
[1] = Cell viability assay (MTT); format: cell-based, murine; conditions: mouse, B16F10 cells
Procedure: B16F10 cells were seeded into 96-well plates at the density of 5 × 10^4 cells/mL, and incubated at 37°C for 24 h. Then, the cells were treated with different concentrations of test samples for 48 h. After incubation, 20 μL MTT (5 mg/mL) was added to each well, and incubated for another 4 h at 37°C. The reaction was stopped by adding 150 μL DMSO per well. The optical density at 490 nm was measured using a microplate reader. Cell viability was calculated as the percentage of viable cells relative to the control group.

B16F10 cells = experiment: Measurement of melanin content in B16F10 cells; format: cell-based, murine; conditions: 48 h; for increase of intracellular melanin content: vs untreated cells
Procedure: Measurement of melanin content was carried out according to a previously described method with a slight modification ([Karunarathne et al., 2019]). B16F10 cells were cultured in 6-well plates at the density of 2 × 10^5 cells/mL overnight before being treated with different concentrations of test samples for 48 h. After the treatments, the medium was discarded and the cells were washed twice with PBS and were collected, then 200 μL of RIPA lysis buffer was added to each well, and left standing in an ice bath for 40 min. The lysates were then clarified by centrifugation for 20 min at 4°C, 12,000 r/min. The protein content in the supernatants was measured using the Pierce BCA protein assay kit. Then the harvested cell pellets were photographed and dissolved in 100 μL of 1 M NaOH (containing 10% DMSO) at 100°C for 1 h. Melanin content was determined by measuring absorption at 405 nm. For the accurate calculation of melanin content, absorbance values were normalized to total protein absorbance values.

[2] = target: T1, Intracellular tyrosinase in B16F10 cells (Mus musculus, UniProt P11344); experiment: Measurement of tyrosinase activity in B16F10 cells (L-DOPA oxidation); format: cell-based, murine; conditions: 48 h
T1 construct: endogenous in cells; host or cells: B16F10 murine melanoma cells
T1 sequence (P11344 19-533): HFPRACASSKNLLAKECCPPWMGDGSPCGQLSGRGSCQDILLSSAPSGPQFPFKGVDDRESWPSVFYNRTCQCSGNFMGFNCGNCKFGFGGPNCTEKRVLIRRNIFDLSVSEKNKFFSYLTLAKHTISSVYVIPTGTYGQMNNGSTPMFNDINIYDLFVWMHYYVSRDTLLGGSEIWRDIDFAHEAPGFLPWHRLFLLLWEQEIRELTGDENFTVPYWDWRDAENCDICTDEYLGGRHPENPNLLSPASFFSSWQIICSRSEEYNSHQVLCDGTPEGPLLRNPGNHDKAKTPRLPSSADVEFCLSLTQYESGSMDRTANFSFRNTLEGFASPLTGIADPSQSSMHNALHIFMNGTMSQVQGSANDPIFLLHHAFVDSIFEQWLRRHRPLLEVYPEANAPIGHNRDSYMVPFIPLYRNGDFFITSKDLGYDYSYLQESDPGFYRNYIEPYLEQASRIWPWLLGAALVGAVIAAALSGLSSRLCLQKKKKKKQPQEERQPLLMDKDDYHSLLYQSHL
Procedure: Intracellular tyrosinase activity was determined by measuring the rate of oxidation of L-DOPA to dopachrome according to a previously described method with a slight modification ([Maack and Pegard, 2016]). The tyrosinase inhibitor glabridin ([Zhang et al., 2023]) and tyrosinase activator 8-MOP ([Yin et al., 2018]) were both utilized as controls to ensure the accuracy of tyrosinase activity assay in living cells. B16F10 cells were cultured in 24-well plates at the density of 5 × 10^4 cells/mL overnight and then treated with different concentrations of test samples for 48 h. After treatments, cells were washed twice with PBS, lysed with PBS containing 1% Triton X-100, and frozen at −80°C for 1 h. The lysates were then clarified by centrifugation for 20 min at 4°C, 12,000 r/min. The protein content in the supernatants was measured using the Pierce BCA protein assay kit. After protein quantification and the adjustment of the protein concentrations, 100 μL of each lysate was mixed with 100 μL of 4 mM L-DOPA in a 96-well plate, and then incubated at 37°C for 1 h, the optical density at 475 nm was measured using a microplate reader. Tyrosinase activity was expressed as a percentage of the control. All experiments were carried out at least three times.

TRP-1 = experiment: Western blotting of TRP-1 in B16F10 cells; format: cell-based, murine; conditions: 48 h
Procedure: (§1) Equal amounts of proteins from the preceding step were loaded and separated by using the 10% SDS-PAGE gels before being electro-transferred onto polyvinylidene fluoride membranes. The membrane was then blocked with 5% skim milk in TBST (Tris-buffered saline containing 0.1% Tween 20) at room temperature for 2 h. The blots were incubated overnight with primary antibodies against TYR, TRP-1, MITF, DCT, and β-actin at 4°C. After washing thrice with TBST (5 min), the membrane was incubated with the secondary antibody for 1 h at room temperature. The protein bands were detected using the ECL detection kit and imaged using a chemiluminescence gel imaging system, and the band intensities were analyzed by the Image J software.

MITF = experiment: Western blotting of MITF in B16F10 cells; format: cell-based, murine; conditions: 48 h
Procedure: as §1

zebrafish larvae [3] = experiment: Melanogenesis in zebrafish larvae pretreated with PTU; format: in vivo; conditions: 48 h, PTU 200 μM pretreatment
Procedure: (§2) To assess the effects of these compounds on melanogenesis in vivo, the total melanin content of whole zebrafish extracts was measured according to a previously described method with minor modification ([Karunarathne et al., 2019]; [Ding et al., 2021]). Briefly, zebrafish larvae of 24 h post-fertilized (hpf) were seeded in 24-well plates with ten embryos per well, each group was set up with four replicates and pretreated with 200 μM PTU for 24 h. Then, the culture medium was replaced with different concentrations of test samples and treated for another 48 h. 8-MOP (50 μM) was used as a positive control, blank controls were not treated and were cultured normally. In addition, to further verify the whitening effect of the compounds, ten zebrafish larvae (24 hpf) per well were seeded in a 24-well plate and cultured for another 24 h using fresh culture media, and each group was set up with four duplicates. Then, the culture medium was replaced with different concentrations of test samples, and the zebrafish larvae were incubated for another 48 h. 8-MOP (50 μM) and arbutin (100 mM) were used as positive controls. Spontaneous melanin content was measured from zebrafish larvae at 96 hpf. The fish embryos were fixed upright with sodium carboxymethylcellulose fixative. Five fish embryos from each experiment were randomly selected for photography under a stereomicroscope. The densitometric analysis was performed using Image J software.

zebrafish larvae [4] = experiment: Zebrafish depigmentation model (without PTU pretreatment); format: in vivo; conditions: 48 h, no PTU pretreatment
Procedure: as §2

mushroom tyrosinase = mushroom tyrosinase (Agaricus bisporus, UniProt C7FF04); experiment: Tyrosinase inhibition kinetic analysis (Lineweaver-Burk); format: biochemical; conditions: Lineweaver-Burk plots, L-tyrosine substrate
Procedure: The enzyme reaction kinetics of these compounds were measured by constructing Lineweaver-Burk plots of inverse velocities (1/[V]), contrary to the inverse of substrate concentration (1/[S]) ([Yoshino and Murakami, 2009]; [Butt et al., 2019]). Preincubations and measurement times were performed using the same protocol as described above. The substrate tyrosine concentration was kept between 0.5 and 8 mM in all kinetic studies, test sample concentrations were set as follows: glabridin (0–0.625 µM), KR (0–5 µM), SG (0–10 µM), IAI (0–2 µM). The values of the kinetic constants were calculated using Lineweaver-Burk plot analysis, and the maximum velocity (Vmax) and Michaelis constant (Km) were also calculated by the Lineweaver-Burk plots with the various concentrations of substrate.

DCT = experiment: Western blotting of DCT in B16F10 cells; format: cell-based, murine; conditions: 48 h
Procedure: as §1

zebrafish embryos = experiment: Determination of the maximum tolerated concentration (MTC) in zebrafish embryos; format: in vivo; conditions: 24 h
Procedure: Zebrafish embryos that were developing normally at 24 h were chosen at random, five zebrafish embryos per well were seeded in 48 well plates, and each group was set up with three duplicates. The embryo culture medium in the 48-well plate was removed except the blank group, and 1 mL of culture medium containing different concentrations of test samples was added to treatment groups for 24 h. The vehicle control group was added to the embryo culture medium containing 0.1% of DMSO.

tyrosinase = target: tyrosinase; design: method as in Kim et al., 2003; conditions: ref Kim et al., 2003; read-out: IC50 (inhibition on tyrosinase activity); cited from earlier work
TYR = experiment: Western blotting of TYR in B16F10 cells; format: cell-based, murine; conditions: 10 μM, 48 h
Procedure: as §1, with “[…],” for “TRP-1,”

Chain of mushroom tyrosinase (C7FF04 1-392): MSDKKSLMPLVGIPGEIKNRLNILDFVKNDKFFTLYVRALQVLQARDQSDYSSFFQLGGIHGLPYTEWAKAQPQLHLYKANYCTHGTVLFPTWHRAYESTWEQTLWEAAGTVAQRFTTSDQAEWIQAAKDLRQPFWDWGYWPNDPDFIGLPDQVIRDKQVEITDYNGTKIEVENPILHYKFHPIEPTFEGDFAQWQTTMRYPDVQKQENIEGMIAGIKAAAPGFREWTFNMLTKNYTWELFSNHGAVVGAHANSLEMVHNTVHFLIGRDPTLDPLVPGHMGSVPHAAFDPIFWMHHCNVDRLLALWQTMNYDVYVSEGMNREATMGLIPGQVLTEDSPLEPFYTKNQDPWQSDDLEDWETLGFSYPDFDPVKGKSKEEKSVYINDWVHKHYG

With `COc1c2occc2cc2ccc(=O)oc12` [8-MOP, 8-methoxypsoralen, reference compound] the viability at 48 h ([1]; 0–100 μM) was greater than 80%, the “effect on melanin production in B16F10 cells (in words)” value (B16F10 cells) was “promoted melanin biosynthesis” and the “effect on tyrosinase activity in B16F10 cells (in words)” value (“effect on tyrosinase activity” for short) [2] was “enhance cellular tyrosinase activity”. For the same compound, the “expression of TRP-1 (in words)” value (TRP-1; positive control) was “increased”, the “expression of MITF (in words)” value (MITF; positive control) was “increased” and the “increase of melanin production vs model (PTU) group” value (zebrafish larvae [3]; 50 μM) was 25.0%. The “effect on melanin production vs control group (in words)” value (zebrafish larvae [4]) was “did not affect melanin production”.
For `CC1(C)C=Cc2c(ccc3c2OC[C@@H](c2ccc(O)cc2O)C3)O1` [Glabridin, glabridin, reference compound], the viability at 48 h ([1]; 0–2 μM) was greater than 80%, the “effect on melanin production in B16F10 cells (in words)” value (B16F10 cells) was “strong anti-melanogenic effect” and the “effect on tyrosinase activity” value [2] was “inhibited tyrosinase activity”.
In the case of `COc1cc(O)c2c(=O)c(O)c(-c3ccc(O)cc3)oc2c1CC=C(C)C` [IAI, isoanhydroicaritin], the “inhibition type on tyrosinase” value (mushroom tyrosinase) is reported as “mixed type”, the viability at 48 h ([1]; 0–5 μM) is reported as greater than 80% and the “effect on melanin production in B16F10 cells (in words)” value (B16F10 cells) is reported as “did not exhibit significant activity; also recorded: did not exert any significant effects”. The “increase of tyrosinase activity in B16F10 cells” value (“increase of tyrosinase activity” below) ([2]; 5 μM) was 25.2%, the “effect on tyrosinase activity” value [2] was “did not exhibit significant activity” and the “upregulation of relative expression of TRP-1 protein” value (TRP-1; 5 μM) was 240.0%. For the same compound, the “upregulation of relative expression of DCT protein” value (DCT; 5 μM) was 83.4%, the “toxicity in zebrafish by the MTC assay” value (zebrafish embryos; 40, 80, and 160 μM) was “nontoxic” and the “reduction of pigmentation vs control group” value (“reduction of pigmentation” for short) (zebrafish larvae [4]; 80 μM) was 33.0%. The “reduction of pigmentation” value (zebrafish larvae [4]; 160 μM) was 34.4%.
In the case of `C=C(C)[C@H](CC=C(C)C)Cc1c(O)cc(OC)c2c1O[C@H](c1ccc(O)cc1O)CC2=O` [KR, kurarinone], the “inhibition type on tyrosinase” value (mushroom tyrosinase) is reported as “mixed type”, the viability at 48 h ([1]; 0–20 μM) is reported as greater than 80% and the “increase of intracellular melanin content” value (B16F10 cells; 5 μM) is reported as 61.6%. For the same compound, the “increase of intracellular melanin content” value (B16F10 cells; 10 μM) was 85.5%, the “effect on melanin production in B16F10 cells (in words)” value (B16F10 cells) was “stimulated melanin production” and the “increase of tyrosinase activity” value ([2]; 2.5 μM) was 25.1%. The “increase of tyrosinase activity” value ([2]; 5 μM) was 42.1%, the “increase of tyrosinase activity” value ([2]; 10 μM) was 77.2% and the “effect on tyrosinase activity” value [2] was “enhanced intracellular tyrosinase activity”. The “upregulation of relative expression of TRP-1 protein” value (TRP-1; 10 μM) was 79.2%, the “upregulation of relative expression of DCT protein” value (DCT; 10 μM) was 127.8% and the “upregulation of relative expression of MITF protein” value (MITF; 10 μM) was 84.0%. The “toxicity in zebrafish by the MTC assay” value (zebrafish embryos; 5, 10, and 20 μM) was “nontoxic”, the “increase of melanin production vs model (PTU) group” value (zebrafish larvae [3]; 20 μM) was 36.9% and the “effect on melanin production vs control group (in words)” value (zebrafish larvae [4]) was “did not affect melanin production”. For the same compound, the IC50 (tyrosinase) was 6.2 µM.
With `C=C(C)[C@H](CC=C(C)C)Cc1c(O)cc(O)c2c1O[C@H](c1ccc(O)cc1O)CC2=O` [SG, sophoraflavanone G] the “inhibition type on tyrosinase” value (mushroom tyrosinase) was “mixed type”, the viability at 48 h ([1]; 0–10 μM) was greater than 80% and the “effect on melanin production in B16F10 cells (in words)” value (B16F10 cells) was “did not exhibit significant activity; also recorded: did not exert any significant effects”. The “increase of tyrosinase activity” value ([2]; 10 μM) was 45.7%, the “effect on tyrosinase activity” value [2] was “did not exhibit significant activity” and the “upregulation of relative expression of TRP-1 protein” value (TRP-1; 10 μM) was 229.3%. For the same compound, the “upregulation of relative expression of DCT protein” value (DCT; 10 μM) was 70.0%, the “increase of expression of TYR” value (TYR) was 78.4% and the “toxicity in zebrafish by the MTC assay” value (zebrafish embryos; 10 μM) was “nontoxic”. For the same compound, the “effect on melanin production vs model (PTU) group (in words)” value (zebrafish larvae [3]; 10 μM) was “no effect” and the IC50 (tyrosinase) was 6.6 µM.
With `OC[C@H]1O[C@@H](Oc2ccc(O)cc2)[C@H](O)[C@@H](O)[C@@H]1O` [arbutin, reference compound] the “reduction of pigmentation” value (zebrafish larvae [4]; 100 mM) was 51.4%.
For `C=C(C)[C@H](CC=C(C)C)Cc1c(O)cc(OC)c(C(=O)/C=C/c2ccc(O)cc2O)c1O` [kuraridin, reference compound], the IC50 (tyrosinase) is given as 0.6 µM.
